Results taken from patent US20030236288A1, “Use of substituted 3-phenyl-5-alkoxy-3H-(1,3,4)-oxadizol-2-ones for inhibiting pancreatic lipase” (priority 2002, published 2003).

Columns and labels:
pancreatic lipase (PL) = molecular target: T1, pancreatic lipase (PL) (Sus scrofa, UniProt P00591); assay: Pancreatic lipase inhibition assay (release of radiolabeled oleate from glycerol tri[9,10(n)-3H]oleate/tripalmitin substrate); format: biochemical; settings: enriched lipase preparation from porcine pancreas; 30° C., 30 min; up to 8 concentrations
T1 construct: Enriched preparation from porcine pancreas; purchased Sigma L-0382; host or cells: porcine pancreas (tissue preparation)
T1 sequence (P00591 1-450): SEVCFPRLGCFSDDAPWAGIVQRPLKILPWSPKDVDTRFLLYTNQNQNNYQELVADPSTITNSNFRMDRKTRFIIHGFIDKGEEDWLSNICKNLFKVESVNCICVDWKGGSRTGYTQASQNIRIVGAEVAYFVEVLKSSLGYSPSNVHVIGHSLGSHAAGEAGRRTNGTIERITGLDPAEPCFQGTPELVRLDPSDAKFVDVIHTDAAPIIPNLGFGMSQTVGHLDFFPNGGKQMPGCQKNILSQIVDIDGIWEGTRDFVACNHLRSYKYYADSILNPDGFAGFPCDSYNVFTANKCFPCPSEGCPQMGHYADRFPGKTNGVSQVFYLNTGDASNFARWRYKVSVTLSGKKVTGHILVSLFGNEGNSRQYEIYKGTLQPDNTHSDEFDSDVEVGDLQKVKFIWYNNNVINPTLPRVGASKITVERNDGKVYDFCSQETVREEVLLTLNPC
Experimental: The activity of the compounds was assayed as follows:
1. Preparation of the substrate:
80 μL of tripalmitin (85 mM in chloroform) are mixed with 5 μL of glycerol tri[9,10(n)-^3H]oleate (5 mCi/mL in toluene) in a 12 mL polypropylene vessel. Evaporation in a rotary evaporator (50° C.) and addition of 4 mL of 200 mM Tris/HCl (pH 7.6), 0.8% TX-100 are followed by ultrasound treatment of the mixture (Branson B-12 sonifier, output level 4, 3×2 min with 1 min intervals on ice) until a homogeneous milky suspension is produced.
Lipase buffer: 80 mM Tris/HCl (pH 7.6), 600 mM NaCl, 8 mM CaCl2, 8 mM benzamidine, 2 mM Pefabloc (Roche Biochemicals) (add the inhibitors only on the day of the assay)
Pancreatic lipase: Enriched preparation from porcine pancreas (Sigma order No. L-0382) dissolved in lipase buffer (100 000 units/500 μL)
5 μL of test substance (in 100% DMSO) or DMSO (control) are mixed with 10 μL of substrate and 5 μL of lipase (in this sequence) and incubated at 30° C. (Eppendorf Thermomixer, 350 min^−1) for 30 min. After addition of 325 μL of methanol/chloroform/n-heptane (10/9/7) and 105 μl of 0.1 M K2CO3, 0.1 M H3BO3 (pH 10.5 adjusted with 1 M KOH) and vigorous mixing, the phases are separated by centrifugation (8000 rpm, Eppendorf centrifuge, 4° C.). 140 μL portions of the aqueous supernatant (contains the liberated radiolabeled oleate; 70% recovery) are transferred into 20 mL scintillation vials and mixed with 6 mL of scintillation cocktail (Beckman Ready Safe). After vigorously mixing and incubating at room temperature for 2 h, the radioactivity is measured in a liquid scintillation counter (Beckman, L8008, tritium channel with quench curve, measurement time 20 min).
Substances are routinely tested in each concentration in three independent incubation mixtures each with duplicate determination after phase separation (SD<0.02). Background values (reaction under the same conditions but without lipase) are subtracted from all values (corresponds predominantly to the content of glycerol trioleate or free oleate in the substrate preparation in the aqueous phase, <5% of the radioactivity employed). The inhibition of the pancreatic lipase enzymatic activity by a test substance is determined by comparison with an uninhibited control reaction (presence of lipase=0% inhibition; absence of lipase 100% inhibition in each case after background correction). The IC50 is calculated from an inhibition plot with up to 8 concentrations of the test substance. The software package GRAPHIT (Elsevier-BIOSOFT) is used for curve fitting and IC50 determination.

COc1nn(-c2cccc(COc3cccc(C)c3)c2)c(=O)o1 [Example 239, 3-(3-(3-Methylphenoxymethyl)phenyl)-5-methoxy-3H-(1,3,4)-oxadiazol-2-one]
melting point: 47 °C

COc1nn(-c2ccc(Oc3ccc(Cl)cc3)cc2)c(=O)o1 [Example 229, 3-(4-(4-Chlorophenoxy)phenyl)-5-methoxy-3H-(1,3,4)-oxad iazol-2-one]
melting point: 68 °C
IC50 (pancreatic lipase (PL)): 600 nM

CCOc1nn(-c2ccc(OC(F)(F)F)cc2)c(=O)o1 [Example 210, 3-(4-Trifluoromethoxyphenyl)-5-ethoxy-3H-(1,3,4)-oxad iazol-2-one]
melting point: 63 °C
IC50 (pancreatic lipase (PL)): 700 nM

CCOc1nn(-c2cccc(Oc3ccccc3)c2)c(=O)o1 [Example 233, 3-(3-Phenoxyphenyl)-5-ethoxy-3H-(1,3,4)-oxadiazol-2-one]
melting point: 50 °C

CC(C)Oc1nn(-c2cccc(OC(F)(F)F)c2)c(=O)o1 [Example 220, 3-(3-Trifluoromethoxyphenyl)-5-isopropoxy-3H-(1,3,4)-oxadiazol-2-one]
IC50 (pancreatic lipase (PL)): 1800 nM

CCCCOc1nn(-c2ccc(OC(F)(F)F)cc2)c(=O)o1 [Example 212, 3-(4-Trifluoromethoxyphenyl)-5-butoxy-3H-(1,3,4)-oxadiazol-2-one]
IC50 (pancreatic lipase (PL)): 500 nM

O=c1oc(OCc2ccccc2)nn1-c1ccc(OC(F)(F)F)cc1 [Example 213, 3-(4-Trifluoromethoxyphenyl)-5-benzyloxy-3H-(1,3,4)-oxad iazol-2-one]
IC50 (pancreatic lipase (PL)): 500 nM

COc1nn(-c2ccc(NC(=O)c3ccc(C(F)(F)F)cc3)c(OCc3ccccc3)c2)c(=O)o1 [Example 86, 5-Methoxy-3-(3-benzyloxy-4-(4-trifluoromethylbenzoylamino)phenyl)-3H-(1,3,4)-oxadiazol-2-one]
IC50 (pancreatic lipase (PL)): 1500 nM

COc1nn(-c2ccc(S(=O)(=O)N3CCOCC3)cc2)c(=O)o1 [Example 208, 3-(4-Morpholinosulfonylphenyl)-5-methoxy-3H-(1,3,4)-oxadiazol-2-one]
melting point: 164 °C

COc1nn(-c2ccc(Oc3ccccc3)cc2)c(=O)o1
melting point: 83 °C

COc1nn(-c2ccc(OC(F)(F)F)cc2)c(=O)o1 [Example 209, 3-(4-Trifluoromethoxyphenyl)-5-methoxy-3H-(1,3,4)-oxad iazol-2-one]
melting point: 52 °C

COc1nn(-c2cccc(-c3ccccc3)c2)c(=O)o1 [Example 240, 3-(3-Phenylphenyl)-5-methoxy-3H-(1,3,4)-oxadiazol-2-one]
melting point: 80 °C

COc1nn(-c2ccc(-c3ccccc3)cc2)c(=O)o1 [Example 238, 3-(4-Phenylphenyl)-5-methoxy-3H-(1,3,4)-oxadiazol-2-one]
melting point: > 260 °C (dec.)

COc1nn(-c2cccc(NC(=O)Nc3ccccn3)c2)c(=O)o1 [Example 59, 5-Methoxy-3-(3-(pyrid-2-yl)aminocarbonylaminophenyl)-3H-(1,3,4)-oxadiazol-2-one]
melting point: 81 °C

CCOc1nn(-c2ccc(OC3CC(C)(C)CC(C)(C)C3)cc2)c(=O)o1 [Example 215, 3-(4-(3,3,5,5-Tetramethylcyclohexyloxy)phenyl)-5-ethoxy-3H-(1,3,4)-oxad iazol-2-one]
melting point: 111 °C

COc1nn(-c2ccc(S(=O)(=O)NC3CC(C)CC(C)(C)C3)cc2)c(=O)o1 (centres unmarked) [Example 214, 3-(4-(3,3,5-Trimethylcyclohexylaminosulfonyl)phenyl)-5-methoxy-3H-(1,3,4)-oxadiazol-2-one]
melting point: 164 °C

COc1nn(-c2ccc(NC(=O)c3ccc(Cl)cc3)c(OCc3ccc(F)cc3)c2)c(=O)o1 [Example 46, 5-Methoxy-3-(4-(4-chlorobenzoylamino)-3-(4-fluorobenzyloxy)phenyl)-3H-(1,3,4)-oxadiazol-2-one]
melting point: 167 °C

CCOc1nn(-c2cccc(OC(F)(F)F)c2)c(=O)o1 [Example 218, 3-(3-Trifluoromethoxyphenyl)-5-ethoxy-3H-(1,3,4)-oxad iazol-2-one]
IC50 (pancreatic lipase (PL)): 700 nM

COc1nn(-c2cccc(OCc3ccccc3)c2)c(=O)o1 [Example 216, 3-(3-Benzyloxyphenyl)-5-methoxy-3H-(1,3,4)-oxadiazol-2-one]
IC50 (pancreatic lipase (PL)): 800 nM

COc1nn(-c2cccc(Oc3ccccc3)c2)c(=O)o1 [Example 232, 3-(3-Phenoxyphenyl)-5-methoxy-3H-(1,3,4)-oxad iazol-2-one]
melting point: 89 °C

COc1nn(-c2cccc(OC3CC(C)(C)CC(C)(C)C3)c2)c(=O)o1 [Example 237, 3-(3-(3,3,5,5-Tetramethylcyclohexyloxy)phenyl)-5-methoxy-3H-(1,3,4)-oxadiazol-2-one]
melting point: 68 °C
